Reference: PMC10762035, “Molecular basis of human trace amine-associated receptor 1 activation” (Nature Communications, 2024)
Changes are numbered by the printed parent chain. “And” between values parts separate entries of the source, which are not always exact repeats. Equal entries are not always repeated. Where two headings read alike, the source gives them in different places.

Experiments:
Assay type in all cases: cell-based
hTA1 T271A = target: T1, hTA1 T271A (Homo sapiens, UniProt Q96RJ0, T271A); assay: GloSensor cAMP accumulation assay, T271A mutant
T1 construct: expressed in transfected cells; host or cells: HEK293T
T1 sequence (Q96RJ0 1-339 T271A): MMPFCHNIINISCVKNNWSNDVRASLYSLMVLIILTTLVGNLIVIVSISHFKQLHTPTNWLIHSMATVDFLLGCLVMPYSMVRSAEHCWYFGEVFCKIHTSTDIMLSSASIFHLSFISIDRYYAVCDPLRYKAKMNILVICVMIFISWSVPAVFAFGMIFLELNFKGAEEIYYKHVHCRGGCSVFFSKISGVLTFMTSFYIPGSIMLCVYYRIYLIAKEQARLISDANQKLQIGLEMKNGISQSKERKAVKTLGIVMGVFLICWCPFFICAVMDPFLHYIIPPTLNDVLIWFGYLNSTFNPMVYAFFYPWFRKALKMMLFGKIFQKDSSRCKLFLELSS

hTA1 C96S = target: T2, hTA1 C96S (Homo sapiens, UniProt Q96RJ0, C96S); assay: GloSensor cAMP accumulation assay, C96S mutant; conditions: log[Compound]
T2 construct: expressed in transfected cells; host or cells: HEK293T
T2 sequence (Q96RJ0 1-339 C96S): T1 sequence (Q96RJ0 1-339 T271A) with C96S, A271T

hTA1 F195T = target: T3, hTA1 F195T (Homo sapiens, UniProt Q96RJ0, F195T); assay: GloSensor cAMP accumulation assay, F195T mutant;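 also: cells transiently co-expressing HA-FLAG-tagged hTA1 and the GloSensor cAMP biosensor, luminescence read 30 min after agonist addition at room temperature, concentration-response fitted by nonlinear regression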
T3 construct: expressed in transfected cells; host or cells: HEK293T
T3 sequence (Q96RJ0 1-339 F195T): T1 sequence (Q96RJ0 1-339 T271A) with F195T, A271T

hTA1 I290N = target: T4, hTA1 I290N (Homo sapiens, UniProt Q96RJ0, I290N); assay: GloSensor cAMP accumulation assay, I290N mutant;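 also: cells transiently co-expressing hTA1 and the GloSensor cAMP biosensor, luminescence read 30 min after compound addition at room temperature, efficacy scaled to the maximal β-PEA response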
T4 construct: expressed in transfected cells; host or cells: HEK293T
T4 sequence (Q96RJ0 1-339 I290N): T1 sequence (Q96RJ0 1-339 T271A) with A271T, I290N

hTA1 C88/178S = target: T5, hTA1 C88/178S (Homo sapiens, UniProt Q96RJ0, C178S/C88S); assay: GloSensor cAMP accumulation assay, C88S/C178S double mutant; conditions: for Normalized Luminescence Counts (N=2): log[Compound], single replicate values
T5 construct: expressed in transfected cells; host or cells: HEK293T
T5 sequence (Q96RJ0 1-339 C88S/C178S): T1 sequence (Q96RJ0 1-339 T271A) with C88S, C178S, A271T

[1] = C88S, C178S, each row is one independent experiment, 3 replicates

Compound: CCC(CC1COC(N)=N1)c1ccccc1 (centres unmarked) [Ro5256390]
- EC50 (hTA1 T271A; EC50, T271A, n=2): 14.7 nM
- Emax values, Mean (hTA1 T271A; T271A mutant, Figure 5B, β-PEA = 100, each row one independent experiment (3 replicates)): 98.9093
- EC50 (hTA1 T271A; pEC50 values, Mean, T271A mutant, Figure 5B, each row one independent experiment (3 replicates)): 8.67 nM and 24.8 nM
- Emax (hTA1 T271A; read-out: Emax values, Mean, T271A mutant, Figure 5B, β-PEA = 100, each row one independent experiment (3 replicates)): 92.1%
- Emax (hTA1 T271A; read-out: Span ± SEM (Emax normalized to β-PEA), T271A, n=2): 95.5 ± 3.42%
- Normalized Luminescence Counts (hTA1 C96S; C96S, M = -5, single replicates (N=2)): -0.5726 and -3.209 and -1.891 and -16.2542 and -4.6346 and -2.698
- Normalized Luminescence Counts (hTA1 C96S; C96S, M = -5.522, single replicates (N=2)): -1.891 (2×) and -3.209 and -4.6346 and -8.508 and 10.8582
- Normalized Luminescence Counts (hTA1 C96S; C96S, M = -6, single replicates (N=2)): 4.041 and -2.55 and -0.5726 and 5.048 (2×) and -10.4444
- Normalized Luminescence Counts (hTA1 C96S; C96S, M = -6.522, single replicates (N=2)): 1.4045 and -2.55 and 2.723 and -0.7614 and -4.6346 and 3.112
- Normalized Luminescence Counts (hTA1 C96S; C96S, M = -7, single replicates (N=2)): 2.723 and -1.891 and 1.4045 and -0.7614 (2×) and -4.6346
- Normalized Luminescence Counts (hTA1 C96S; C96S, M = -7.522, single replicates (N=2)): 5.359 and -3.209 and 2.723 and -0.7614 and -10.4444 and 14.7315
- Normalized Luminescence Counts (hTA1 C96S; C96S, M = -8, single replicates (N=2)): 2.064 and -0.5726 (2×) and 30.2243 and -8.508 and 12.7948
- Normalized Luminescence Counts (hTA1 C96S; C96S, M = -8.522, single replicates (N=2)): 0.7455 and -1.891 and 4.7 and 14.7315 and 3.112 and 12.7948
- Normalized Luminescence Counts (hTA1 C96S; C96S, M = -9, single replicates (N=2)): 0.7455 and -1.232 and -1.891 and 18.6047 and 8.922 and -4.6346
- Normalized Luminescence Counts (hTA1 C96S; C96S, M = -9.522, single replicates (N=2)): 0.08646 and -3.209 and -2.55 and 3.112 and 1.175 and -0.7614
- Normalized Luminescence Counts (hTA1 C96S; C96S, M = -10, single replicates (N=2)): 1.4045 and -0.5726 and 0.7455 and 3.112 and -2.698 (2×)
- Normalized Luminescence Counts (hTA1 C96S; C96S, M = -10.522, single replicates (N=2)): -0.5726 and -2.55 and -1.232 and 5.048 and 6.985 and -2.698
- Normalized Luminescence Counts (hTA1 C96S; C96S, M = -11, single replicates (N=2)): 0.7455 and 0.08646 and 4.7 and 32.1609 and 18.6047 and 10.8582
- Normalized Luminescence Counts (hTA1 C96S; C96S, M = -11.522, single replicates (N=2)): 3.382 and 0.7455 and 1.4045 and 20.5413
- Normalized Luminescence Counts (hTA1 C96S; M = -11.522, single replicates, mutant block above C178S): 0.4362 and 0.4589 and 0.8459 and 2.031 and 1.818 and 1.444
- Normalized Luminescence Counts (hTA1 C96S; M = -12, single replicates, mutant block above C178S): 0.6183 and 0.1175 and -0.01903 and 3.527 and 0.8561 and 0.9629
- Normalized Luminescence Counts (hTA1 C96S; M = -12.522, single replicates, mutant block above C178S): -0.1556 (2×) and -0.2011 and 1.711 and 1.818 and 0.6424
- EC50 (hTA1 F195T; EC50, F195T, n=2): 2.9 nM
- Emax values, Mean (hTA1 F195T; F195T mutant, Figure 5B, β-PEA = 100, each row one independent experiment (3 replicates)): 107.711
- EC50 (hTA1 F195T; pEC50 values, Mean, F195T mutant, Figure 5B, each row one independent experiment (3 replicates)): 1.63 nM and 4.03 nM
- Emax (hTA1 F195T; read-out: Emax values, Mean, F195T mutant, Figure 5B, β-PEA = 100, each row one independent experiment (3 replicates)): 105%
- Emax (hTA1 F195T; read-out: Span ± SEM (Emax normalized to β-PEA), F195T, n=2): 106 ± 1.33%
- EC50 (hTA1 I290N; EC50, I290N, n=2): 6.21 nM
- cAMP accumulation response, single replicate values (source data, Supplementary Figure 5) (hTA1 I290N; hTA1 I290N (N=2), log[Compound], M = -5): 109.556 and 109.922 and 109.294 and 105.343
- ΔpEC50 values (each mutant value - WT average), Mean (hTA1 I290N; hTA1 I290N mutant minus WT average): -0.14 and 0.00774
- Emax values, Mean (hTA1 I290N; hTA1 I290N mutant, β-PEA set to 100, each grid row a separate experiment, 3 replicates): 96.7119
- EC50 (hTA1 I290N; pEC50 values (Mean), hTA1 I290N mutant, Figure 3B source data, each grid row a separate experiment, 3 replicates): 7.37 nM and 5.24 nM
- Emax (hTA1 I290N; read-out: Emax values (Mean), hTA1 I290N mutant, β-PEA set to 100, each grid row a separate experiment, 3 replicates): 101%
- Emax (hTA1 I290N; read-out: Span ± SEM (Emax normalized to β-PEA), I290N, n=2): 99 ± 2.27%
- ΔEmax values (each mutant value - WT average), Mean (hTA1 C88/178S; [1]): 2.588 and 13.0349
- ΔpEC50 values (each mutant value - WT average), Mean (hTA1 C88/178S; [1]): -0.3451 and 0.337
- Normalized Luminescence Counts (N=2) (hTA1 C88/178S; C88S, C178S, M = -5): 108.214 and 110.475 and 102.673 and 112.685 and 109.211 and 118.575
- Normalized Luminescence Counts (N=2) (hTA1 C88/178S; C88S, C178S, M = -5.522): 107.14 and 118.277 and 96.6804 and 111.477 and 99.2423 and 137.304
- Normalized Luminescence Counts (N=2) (hTA1 C88/178S; C88S, C178S, M = -6): 102.956 and 112.171 and 95.8888 and 120.841 and 90.9352 and 145.46
- Normalized Luminescence Counts (N=2) (hTA1 C88/178S; C88S, C178S, M = -6.522): 97.5284 and 100.073 and 116.864 and 116.461 and 100.602 and 130.658
- Normalized Luminescence Counts (N=2) (hTA1 C88/178S; C88S, C178S, M = -7): 99.1114 and 95.1539 and 92.6097 and 130.507 and 95.1643 and 125.523
- Normalized Luminescence Counts (N=2) (hTA1 C88/178S; C88S, C178S, M = -7.522): 77.3448 and 82.7723 and 86.5603 and 108.607 and 127.336 and 130.961
- Normalized Luminescence Counts (N=2) (hTA1 C88/178S; C88S, C178S, M = -8): 51.564 and 41.5569 and 41.3873 and 109.966 and 74.6229 and 107.852
- Normalized Luminescence Counts (N=2) (hTA1 C88/178S; C88S, C178S, M = -8.522): 25.1047 and 27.2531 and 18.3768 and 63.5971 and 68.4303 and 61.3315
- Normalized Luminescence Counts (N=2) (hTA1 C88/178S; C88S, C178S, M = -9): 12.0447 and 13.3451 and 14.08 and 33.9934 and 34.4465 and 30.5195
- Normalized Luminescence Counts (N=2) (hTA1 C88/178S; C88S, C178S, M = -9.522): 6.334 and 4.865 and 5.4299 and 15.8687 and 15.4156 and 17.077
- Normalized Luminescence Counts (N=2) (hTA1 C88/178S; C88S, C178S, M = -10): 1.925 and 5.769 and 1.359 and 9.978 and 13.6031 and 14.0562
- Normalized Luminescence Counts (N=2) (hTA1 C88/178S; C88S, C178S, M = -10.522): 1.303 and 1.416 and 1.359 and 5.9 and 3.6345 and 7.562
- Normalized Luminescence Counts (N=2) (hTA1 C88/178S; C88S, C178S, M = -11): 1.02 and 0.285 and 0.3416 and 4.3897 and 3.181 and 3.937
- Normalized Luminescence Counts (N=2) (hTA1 C88/178S; C88S, C178S, M = -11.522): 1.416 and 0.4547 and 1.585 and 3.03 and 0.6137 and 2.275
- Normalized Luminescence Counts (N=2) (hTA1 C88/178S; C88S, C178S, M = -12): 0.0589 and 1.303 and -0.3369 and 0.9158 and 0.009559 and 0.7648
- Normalized Luminescence Counts (N=2) (hTA1 C88/178S; C88S, C178S, M = -12.522): -0.05417 and 0.8504 and 0.7373 and 2.577 and 0.4627 and -0.2925
- Emax values, Mean (hTA1 C88/178S; C88S, C178S, normalized (β-PEA = 100), each row is one independent experiment, 3 replicates): 105.892 and 116.339
- EC50 (hTA1 C88/178S; EC50, C88/178S, n=2): 5.38 nM
- EC50 (hTA1 C88/178S; pEC50 values, Mean, C88S, C178S, each row is one independent experiment, 3 replicates): 11.8 nM and 2.46 nM
- Emax (hTA1 C88/178S; read-out: Span ± SEM (Emax normalized to β-PEA)): 111 ± 5.22%
